These results are taken from ChEMBL document CHEMBL3758182, “Synthesis of Alocasin A” (J Nat Prod, 2015).

Assay [1] is described as follows: Antiproliferative activity against human Hep2 cells. The class given is functional, cell-based. Conditions: HEp-2.
For a further assay, the system named is HepG2. As to the kind of experiment: Antiproliferative activity against human HepG2 cells. It is filed as functional, cell-based.

Take `Oc1ccc2[nH]cc(-c3cnc(-c4c[nH]c5ccc(O)cc45)cn3)c2c1`: the half-maximal inhibitory concentration (IC50) (commonly the concentration needed to halve the response being measured) in assay [1] amounted to 151 µM; with HepG2 it was 85 µM.
